Assay results: publication PMC7827406, “Structure–Activity Relationship (SAR) Study of Spautin-1 to Entail the Discovery of Novel NEK4 Inhibitors” (International Journal of Molecular Sciences, 2021)
Like-named read-outs stand apart in the source and are kept apart here.

Legend:
CLK4 [1] = target: T1, CLK4 (Homo sapiens, UniProt Q9HAZ1); test: kinase panel (Eurofins), residual activity at […]; format: biochemical
EGFR [2] = target: T2, EGFR (Homo sapiens, UniProt P00533); test: kinase panel (Eurofins), residual activity at […]; format: biochemical
MARK4(h) = target: T3, MARK4(h) (Homo sapiens, UniProt Q96L34); test: biochemical; design: Eurofins KinaseProfiler full panel at Km ATP, residual kinase activity (%) relative to DMSO
T3 sequence (Q96L34 1-752): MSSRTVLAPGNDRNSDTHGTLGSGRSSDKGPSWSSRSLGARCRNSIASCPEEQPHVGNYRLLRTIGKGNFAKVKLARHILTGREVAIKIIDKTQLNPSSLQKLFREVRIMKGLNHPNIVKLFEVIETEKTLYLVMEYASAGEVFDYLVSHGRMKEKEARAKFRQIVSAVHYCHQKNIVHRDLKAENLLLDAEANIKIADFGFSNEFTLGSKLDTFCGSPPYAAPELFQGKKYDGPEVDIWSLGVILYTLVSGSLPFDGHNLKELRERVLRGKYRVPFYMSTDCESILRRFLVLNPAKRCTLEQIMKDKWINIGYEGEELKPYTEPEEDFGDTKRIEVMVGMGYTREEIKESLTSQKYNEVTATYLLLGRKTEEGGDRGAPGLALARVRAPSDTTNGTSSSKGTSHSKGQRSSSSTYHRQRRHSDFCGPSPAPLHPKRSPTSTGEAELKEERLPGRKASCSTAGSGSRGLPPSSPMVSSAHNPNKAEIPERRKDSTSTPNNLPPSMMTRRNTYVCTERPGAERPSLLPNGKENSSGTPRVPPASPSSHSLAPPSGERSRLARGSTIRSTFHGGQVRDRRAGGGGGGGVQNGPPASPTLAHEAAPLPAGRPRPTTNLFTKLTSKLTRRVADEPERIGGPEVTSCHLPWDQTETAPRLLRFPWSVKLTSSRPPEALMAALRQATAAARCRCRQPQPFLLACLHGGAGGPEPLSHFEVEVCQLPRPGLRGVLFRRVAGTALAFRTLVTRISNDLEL
Method in brief: (§1)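 Radiometric kinase activity assays were run with ATP at Km and compounds at 10 µM, and remaining activity (%) was reported. A separate competitive binding screen measured DNA-tagged kinase displaced from immobilized active-site ligands by qPCR, giving percent kinase still bound at 10 µM compound in DMSO.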

MINK(h) = target: T4, MINK(h) (Homo sapiens, UniProt Q8N4C8); test: biochemical; design: Eurofins KinaseProfiler full panel at Km ATP, residual kinase activity (%) relative to DMSO
T4 construct: gene MINK1
T4 sequence (Q8N4C8 whole entry): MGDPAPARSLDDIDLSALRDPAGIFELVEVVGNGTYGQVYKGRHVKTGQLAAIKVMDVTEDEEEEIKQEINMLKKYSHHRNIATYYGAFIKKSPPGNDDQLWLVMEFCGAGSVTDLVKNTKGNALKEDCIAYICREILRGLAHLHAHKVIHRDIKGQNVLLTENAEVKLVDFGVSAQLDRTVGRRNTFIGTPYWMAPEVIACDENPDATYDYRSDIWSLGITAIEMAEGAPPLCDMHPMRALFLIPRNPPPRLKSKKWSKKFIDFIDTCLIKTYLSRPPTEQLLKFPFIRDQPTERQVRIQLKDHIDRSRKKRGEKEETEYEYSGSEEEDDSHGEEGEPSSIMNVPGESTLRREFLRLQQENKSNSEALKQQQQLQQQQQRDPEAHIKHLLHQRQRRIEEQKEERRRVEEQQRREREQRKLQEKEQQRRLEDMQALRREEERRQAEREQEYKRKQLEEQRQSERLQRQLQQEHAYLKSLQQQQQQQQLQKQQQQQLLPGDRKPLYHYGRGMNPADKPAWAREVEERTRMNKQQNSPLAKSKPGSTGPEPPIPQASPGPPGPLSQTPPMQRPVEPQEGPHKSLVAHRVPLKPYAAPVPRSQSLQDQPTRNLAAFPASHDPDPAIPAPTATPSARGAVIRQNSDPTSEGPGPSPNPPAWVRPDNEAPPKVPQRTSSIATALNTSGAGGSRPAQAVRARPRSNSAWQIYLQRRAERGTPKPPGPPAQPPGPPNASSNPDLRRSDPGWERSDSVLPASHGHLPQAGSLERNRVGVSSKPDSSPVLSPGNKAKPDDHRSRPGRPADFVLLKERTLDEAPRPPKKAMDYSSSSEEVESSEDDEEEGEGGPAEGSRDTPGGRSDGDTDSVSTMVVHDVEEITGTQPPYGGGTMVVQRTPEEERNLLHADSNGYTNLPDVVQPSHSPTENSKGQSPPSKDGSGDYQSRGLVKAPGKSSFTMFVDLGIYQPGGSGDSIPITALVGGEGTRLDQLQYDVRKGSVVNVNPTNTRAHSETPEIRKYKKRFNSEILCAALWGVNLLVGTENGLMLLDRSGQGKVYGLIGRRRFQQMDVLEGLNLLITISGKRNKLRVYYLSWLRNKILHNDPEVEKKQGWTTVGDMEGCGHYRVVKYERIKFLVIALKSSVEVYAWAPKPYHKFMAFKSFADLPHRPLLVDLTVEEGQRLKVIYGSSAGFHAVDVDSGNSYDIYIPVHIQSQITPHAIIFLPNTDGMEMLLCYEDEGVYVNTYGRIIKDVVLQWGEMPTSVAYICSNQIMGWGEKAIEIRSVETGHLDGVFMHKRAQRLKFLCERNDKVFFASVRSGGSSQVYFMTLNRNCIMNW
Method in brief: as §1

EphA5(h) = EphA5(h) (Homo sapiens, UniProt P54756); test: biochemical; design: Eurofins KinaseProfiler full panel at Km ATP, residual kinase activity (%) relative to DMSO
Method in brief: as §1

BIKe(h) = target: T5, BIKe(h) (Homo sapiens, UniProt Q9NSY1); test: biochemical; design: Eurofins KinaseProfiler full panel at Km ATP, residual kinase activity (%) relative to DMSO
T5 construct: gene BMP2K
T5 sequence (Q9NSY1 whole entry): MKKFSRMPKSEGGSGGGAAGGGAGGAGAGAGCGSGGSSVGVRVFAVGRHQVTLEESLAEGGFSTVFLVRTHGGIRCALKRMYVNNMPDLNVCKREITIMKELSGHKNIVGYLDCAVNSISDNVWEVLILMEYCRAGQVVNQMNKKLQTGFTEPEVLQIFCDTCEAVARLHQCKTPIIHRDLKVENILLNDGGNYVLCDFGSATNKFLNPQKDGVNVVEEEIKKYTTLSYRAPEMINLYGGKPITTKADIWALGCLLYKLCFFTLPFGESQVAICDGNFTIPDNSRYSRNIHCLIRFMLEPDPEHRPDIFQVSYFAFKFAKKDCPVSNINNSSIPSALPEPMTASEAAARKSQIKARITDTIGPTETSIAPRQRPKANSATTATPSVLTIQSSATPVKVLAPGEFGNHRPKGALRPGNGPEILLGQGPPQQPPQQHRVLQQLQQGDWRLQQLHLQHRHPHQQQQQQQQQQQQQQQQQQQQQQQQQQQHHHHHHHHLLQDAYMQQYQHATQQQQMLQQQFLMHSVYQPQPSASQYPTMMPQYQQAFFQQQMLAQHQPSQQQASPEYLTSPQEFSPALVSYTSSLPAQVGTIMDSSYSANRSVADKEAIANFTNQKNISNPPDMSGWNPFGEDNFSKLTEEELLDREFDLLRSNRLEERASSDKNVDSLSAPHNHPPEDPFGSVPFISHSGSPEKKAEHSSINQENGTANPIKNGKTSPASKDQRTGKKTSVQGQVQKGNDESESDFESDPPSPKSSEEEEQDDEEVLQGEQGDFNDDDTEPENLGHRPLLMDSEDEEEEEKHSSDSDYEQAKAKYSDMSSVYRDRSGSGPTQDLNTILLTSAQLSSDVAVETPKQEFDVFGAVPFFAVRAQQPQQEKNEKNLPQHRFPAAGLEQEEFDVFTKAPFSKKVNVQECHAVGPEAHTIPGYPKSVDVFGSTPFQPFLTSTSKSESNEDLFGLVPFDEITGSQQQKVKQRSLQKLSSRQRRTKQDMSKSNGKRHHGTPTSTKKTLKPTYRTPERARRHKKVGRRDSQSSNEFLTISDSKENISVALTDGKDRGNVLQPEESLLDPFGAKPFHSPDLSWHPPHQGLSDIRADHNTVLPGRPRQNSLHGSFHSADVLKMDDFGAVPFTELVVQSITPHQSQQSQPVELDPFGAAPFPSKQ
Method in brief: as §1

ICK(h) = target: T6, ICK(h) (Homo sapiens, UniProt Q9UPZ9); test: biochemical; design: Eurofins KinaseProfiler full panel at Km ATP, residual kinase activity (%) relative to DMSO
T6 construct: gene CILK1
T6 sequence (Q9UPZ9 1-632): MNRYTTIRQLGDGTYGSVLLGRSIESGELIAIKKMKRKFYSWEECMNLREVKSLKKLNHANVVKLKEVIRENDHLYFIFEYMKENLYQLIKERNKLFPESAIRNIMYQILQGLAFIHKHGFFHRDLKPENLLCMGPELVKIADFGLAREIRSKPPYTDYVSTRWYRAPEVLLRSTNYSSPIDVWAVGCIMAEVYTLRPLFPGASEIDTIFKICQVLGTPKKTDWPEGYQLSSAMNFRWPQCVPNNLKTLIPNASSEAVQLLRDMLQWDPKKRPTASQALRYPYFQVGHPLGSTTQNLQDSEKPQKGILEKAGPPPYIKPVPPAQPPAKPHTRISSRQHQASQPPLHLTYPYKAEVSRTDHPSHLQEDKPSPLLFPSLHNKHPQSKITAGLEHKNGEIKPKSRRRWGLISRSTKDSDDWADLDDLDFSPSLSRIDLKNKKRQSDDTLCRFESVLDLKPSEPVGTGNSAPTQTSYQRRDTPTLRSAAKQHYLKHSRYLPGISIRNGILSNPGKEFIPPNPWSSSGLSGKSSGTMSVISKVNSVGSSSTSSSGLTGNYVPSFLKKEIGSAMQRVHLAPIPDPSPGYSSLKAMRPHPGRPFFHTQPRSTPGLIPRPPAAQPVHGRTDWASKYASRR
Method in brief: as §1

JAK1(h) = JAK1(h) (Homo sapiens, UniProt P23458); test: biochemical; design: Eurofins KinaseProfiler full panel at Km ATP, residual kinase activity (%) relative to DMSO
Chain of JAK1(h) (P23458 whole entry): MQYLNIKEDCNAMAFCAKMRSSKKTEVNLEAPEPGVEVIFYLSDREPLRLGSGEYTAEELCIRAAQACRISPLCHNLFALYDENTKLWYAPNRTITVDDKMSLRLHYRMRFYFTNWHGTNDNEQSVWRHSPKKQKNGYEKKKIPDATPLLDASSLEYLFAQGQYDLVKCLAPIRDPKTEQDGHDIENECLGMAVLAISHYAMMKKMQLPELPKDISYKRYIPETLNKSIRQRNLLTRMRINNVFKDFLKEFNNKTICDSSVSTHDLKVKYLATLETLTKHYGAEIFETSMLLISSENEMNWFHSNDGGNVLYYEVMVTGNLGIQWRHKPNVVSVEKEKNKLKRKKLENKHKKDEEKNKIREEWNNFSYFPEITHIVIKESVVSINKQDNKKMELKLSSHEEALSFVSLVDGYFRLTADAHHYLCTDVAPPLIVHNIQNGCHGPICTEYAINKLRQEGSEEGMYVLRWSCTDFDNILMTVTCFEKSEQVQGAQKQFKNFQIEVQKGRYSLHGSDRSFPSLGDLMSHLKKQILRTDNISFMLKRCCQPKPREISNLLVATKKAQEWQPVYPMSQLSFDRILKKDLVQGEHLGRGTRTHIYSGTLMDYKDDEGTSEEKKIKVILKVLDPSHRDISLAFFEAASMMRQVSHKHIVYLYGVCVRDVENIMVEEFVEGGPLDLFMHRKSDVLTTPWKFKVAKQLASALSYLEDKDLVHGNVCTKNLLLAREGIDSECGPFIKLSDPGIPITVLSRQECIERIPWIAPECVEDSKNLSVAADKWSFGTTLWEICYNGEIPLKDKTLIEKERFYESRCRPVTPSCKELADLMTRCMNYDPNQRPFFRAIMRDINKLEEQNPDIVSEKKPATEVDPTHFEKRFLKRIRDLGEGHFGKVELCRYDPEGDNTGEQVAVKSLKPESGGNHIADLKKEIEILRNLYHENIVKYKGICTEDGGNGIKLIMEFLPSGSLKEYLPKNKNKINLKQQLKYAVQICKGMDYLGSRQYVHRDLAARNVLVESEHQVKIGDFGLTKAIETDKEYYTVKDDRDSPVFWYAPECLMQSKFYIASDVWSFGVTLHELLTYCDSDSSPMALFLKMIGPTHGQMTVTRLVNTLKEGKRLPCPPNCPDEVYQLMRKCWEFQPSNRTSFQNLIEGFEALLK
Method in brief: as §1

PASK(h) = PASK(h) (Homo sapiens, UniProt Q96RG2); test: biochemical; design: Eurofins KinaseProfiler full panel at Km ATP, residual kinase activity (%) relative to DMSO
Chain of PASK(h) (Q96RG2 whole entry): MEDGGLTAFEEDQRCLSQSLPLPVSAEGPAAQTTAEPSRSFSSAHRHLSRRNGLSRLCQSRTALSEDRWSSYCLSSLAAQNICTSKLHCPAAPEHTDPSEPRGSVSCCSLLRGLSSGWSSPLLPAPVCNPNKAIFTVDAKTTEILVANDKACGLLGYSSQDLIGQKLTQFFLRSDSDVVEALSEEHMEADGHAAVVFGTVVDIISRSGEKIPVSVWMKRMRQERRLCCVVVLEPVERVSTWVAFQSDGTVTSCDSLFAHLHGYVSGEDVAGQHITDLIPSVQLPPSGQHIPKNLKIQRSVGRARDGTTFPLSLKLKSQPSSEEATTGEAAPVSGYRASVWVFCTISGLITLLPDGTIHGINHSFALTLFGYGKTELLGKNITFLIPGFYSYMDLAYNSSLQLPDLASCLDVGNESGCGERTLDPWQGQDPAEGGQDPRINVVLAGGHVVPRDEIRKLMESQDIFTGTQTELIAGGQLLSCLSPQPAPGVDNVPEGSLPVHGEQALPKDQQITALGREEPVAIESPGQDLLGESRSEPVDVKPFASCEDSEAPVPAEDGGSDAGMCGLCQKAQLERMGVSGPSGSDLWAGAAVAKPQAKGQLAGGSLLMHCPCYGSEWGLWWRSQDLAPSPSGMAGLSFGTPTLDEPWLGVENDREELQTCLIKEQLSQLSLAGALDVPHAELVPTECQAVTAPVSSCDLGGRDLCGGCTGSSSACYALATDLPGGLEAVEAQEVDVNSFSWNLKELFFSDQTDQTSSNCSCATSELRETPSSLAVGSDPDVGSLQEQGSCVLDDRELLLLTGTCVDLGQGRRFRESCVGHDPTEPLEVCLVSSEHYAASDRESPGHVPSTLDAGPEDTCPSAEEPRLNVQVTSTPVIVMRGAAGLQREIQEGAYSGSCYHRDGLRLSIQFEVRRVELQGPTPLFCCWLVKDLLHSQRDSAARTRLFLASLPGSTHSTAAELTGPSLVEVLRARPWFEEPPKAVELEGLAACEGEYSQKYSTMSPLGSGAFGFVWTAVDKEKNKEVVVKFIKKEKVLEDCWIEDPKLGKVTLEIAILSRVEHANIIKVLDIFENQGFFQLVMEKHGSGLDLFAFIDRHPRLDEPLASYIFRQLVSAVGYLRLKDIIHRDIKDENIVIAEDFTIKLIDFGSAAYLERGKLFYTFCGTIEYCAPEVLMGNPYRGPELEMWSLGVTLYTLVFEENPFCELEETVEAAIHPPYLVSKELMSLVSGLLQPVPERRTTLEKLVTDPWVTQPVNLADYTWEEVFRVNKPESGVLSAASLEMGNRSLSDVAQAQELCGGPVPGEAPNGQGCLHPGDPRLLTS
Method in brief: as §1

NEK4 = NEK4 (Homo sapiens, UniProt P51957); test: kinase panel (Eurofins), residual activity at […]; format: biochemical; conditions: read-out: [drawing 3] / Residual Activity (%)
EGFR [3] = target: T2, EGFR; test: biochemical; design: Eurofins KinaseProfiler full panel at Km ATP, residual kinase activity (%) relative to DMSO
Method in brief: as §1

CLK4 [4] = target: T1, CLK4; test: biochemical; design: Eurofins KinaseProfiler full panel at Km ATP, residual kinase activity (%) relative to DMSO
Method in brief: as §1

[5] = read-out: [drawing 1] / Residual Activity (%)
[6] = read-out: Residual activity (%) Spautin-1 5aa
[7] = read-out: Residual activity (%) 5as
[8] = read-out: Residual activity (%) 5at
[9] = read-out: [drawing 2] / Residual Activity (%)
[10] = read-out: Residual activity (%) 5ay

`Fc1ccc(CNc2ncnc3ccc(F)cc23)cc1` [5aa, 6-Fluoro-N-(4-fluorobenzyl)-4-Quinazolinamine] showed a remaining activity at 10 µM (CLK4 [1]; [5]) of 19%, a remaining activity at 10 µM (EGFR [2]; [5]) of 27% and a remaining activity at 10 µM (MARK4(h); [6]) of 107%. It also gave a remaining activity at 10 µM (MINK(h); [6]) of 86%, a remaining activity at 10 µM (EphA5(h); [6]) of 90% and a remaining activity at 10 µM (BIKe(h); [6]) of 95%. For the same compound, the remaining activity at 10 µM (ICK(h); [6]) was 97%, the remaining activity at 10 µM (JAK1(h); [6]) was 117% and the remaining activity at 10 µM (PASK(h); [6]) was 66%.

`Fc1ccc(CCNc2ncnc3ccc(F)cc23)cc1` [5as, 6-Fluoro-N-[2-(4-Fluorophenyl)Ethyl]-4-Quinazolinamine] showed a remaining activity at 10 µM (NEK4) of 27%, a remaining activity at 10 µM (MARK4(h); [7]) of 104% and a remaining activity at 10 µM (EGFR [3]; [7]) of 46%. The remaining activity at 10 µM (CLK4 [4]; [7]) was 12%, the remaining activity at 10 µM (MINK(h); [7]) was 88% and the remaining activity at 10 µM (EphA5(h); [7]) was 99%. It also gave a remaining activity at 10 µM (BIKe(h); [7]) of 98%, a remaining activity at 10 µM (ICK(h); [7]) of 90% and a remaining activity at 10 µM (JAK1(h); [7]) of 93%. For the same compound, the remaining activity at 10 µM (PASK(h); [7]) was 44%.

With `Fc1ccc2ncnc(NCCc3ccc(Cl)cc3)c2c1` [5at, N-[2-(4-Chlorophenyl)Ethyl]-6-Fluoro-4-Quinazolinamine] the remaining activity at 10 µM (MARK4(h); [8]) was 105%, the remaining activity at 10 µM (EGFR [3]; [8]) was 72% and the remaining activity at 10 µM (CLK4 [4]; [8]) was 16%. It also gave a remaining activity at 10 µM (MINK(h); [8]) of 89%, a remaining activity at 10 µM (EphA5(h); [8]) of 87% and a remaining activity at 10 µM (BIKe(h); [8]) of 88%. The remaining activity at 10 µM (ICK(h); [8]) was 88%, the remaining activity at 10 µM (JAK1(h); [8]) was 99% and the remaining activity at 10 µM (PASK(h); [8]) was 30%.

Work on `COc1ccc2ncnc(Nc3cccc(F)c3)c2c1` [5ay, N-(3-Fluorophenyl)-6-Methoxy-4-Quinazolinamine] yielded a remaining activity at 10 µM (CLK4 [1]; [9]) of 6%, a remaining activity at 10 µM (EGFR [2]; [9]) of 1% and a remaining activity at 10 µM (MARK4(h); [10]) of 100%. The remaining activity at 10 µM (MINK(h); [10]) was 67%, the remaining activity at 10 µM (EphA5(h); [10]) was 95% and the remaining activity at 10 µM (BIKe(h); [10]) was 67%. The remaining activity at 10 µM (ICK(h); [10]) was 92%, the remaining activity at 10 µM (JAK1(h); [10]) was 90% and the remaining activity at 10 µM (PASK(h); [10]) was 65%.
